The first assay relates to aconitin-induced atrial fibrillation. The assay is described as follows: Aconitin-induced atrial fibrillation model in anaesthetized dogs (Pharmacological Trial 1). It is filed as in vivo, dog. The note with it: Canis lupus familiaris; intravenous, anesthetized dogs, as hydrochloride; read-out: minimum dose level which suppresses atrial fibrillation. The method, then: Pharmacological Trial 1: Evaluation of effectiveness in aconitin-induced atrial fibrillation model (dogs) Evaluation was performed according to K. Hashimoto (Jpn. J. Pharmacol., Vol. 46, 349-358, 1988) as follows:
Method: Dog was anesthetized and thoracotomy was made. Persistent atrial fibrillation was induced by placing a piece of filter paper impregnated with 0.5% aconitin solution (20 to 30 μl) on the right atrium. […] Onset and suppression of atrial fibrillation were monitored electrocardiographically by placing Ag--AgCl bipolar electrode on the right atrial auricle.
Results: Each compound in Examples 1 to 87 suppressed atrial fibrillation at least following dose level (all compounds were used in the form of hydrochloride).
On to `COc1cccc(OC)c1C(=O)Nc1ccc(OCCN)cc1.Cl` [Example 1, 4'-(2-aminoethoxy)-2,6-dimethoxybenzanilide Hydrochloride], for which the minimal effective dose worked out at 10 mg/kg. Still for that read-out and setting: the figure for `CCN(CC)CCOc1ccc(NC(=O)c2c(OC)cccc2OC)cc1.Cl` [Example 2, 4'-[2-(diethylamino)ethoxy]-2,6-dimethoxybenzanilide Hydrochloride] is 10 mg/kg. Same read-out and setting: then `CCNCCOc1ccc(NC(=O)C2CCOCC2)cc1.Cl` [Example 3, 4'-[2-(ethylamino)ethoxy]-3,4,5,6-tetrahydro-2H-pyran-4-carboxanilide Hydrochloride], with 10 mg/kg.

As to `COc1cc(NC(=O)c2c(OC)cccc2OC)ccc1OCCNC(C)C.Cl` [Example 4, 4'-[2-(isopropylamino)ethoxy]-2,6-dimethoxy-3'-methoxybenzanilide Hydrochloride], the minimal effective dose was 10 mg/kg. For the compound `CC(C)NCCOc1ccc(NC(=O)c2ccccc2S(C)(=O)=O)cc1NS(C)(=O)=O.Cl` [Example 5, 4'-[2-(isopropylamino)ethoxy]-3'-methanesulfonamido-2-(methanesulfonyl)benzanilide Hydrochloride], the minimal effective dose worked out at 10 mg/kg. On the same count and under the same terms, then `Cc1cc(NC(=O)c2ccccc2NS(C)(=O)=O)cc(C)c1OCCNC(C)C.Cl` [Example 6, 4'-[2-(isopropylamino)ethoxy]-2-methanesulfonamido-3',5'-dimethylbenzanilide Hydrochloride], with 10 mg/kg.

Turning to `CCOc1cccc(OCC)c1C(=O)Nc1ccc(OCCN(CC)CC)cc1.Cl` [Example 8, 4'-[2-(Diethylamino)ethoxy]-2,6-diethoxybenzanilide Hydrochloride], the minimal effective dose was 10 mg/kg. The same measure, in the same setting: then `CCN(CC)CCOc1ccc(NC(=O)c2ccccc2NS(C)(=O)=O)cc1.Cl` [Example 9, 4'-[2-(Diethylamino)ethoxy]-2-(methanesulfonamido)benzanilide Hydrochloride], with 10 mg/kg; and `CCN(CC)CCOc1ccc(NC(=O)c2ccccc2NS(=O)(=O)CC)cc1.Cl` [Example 10, 4'-[2-(Diethylamino)ethoxy]-2-(ethanesulfon amido)benzanilide Hydrochloride], with 3 mg/kg; and `CCCS(=O)(=O)Nc1ccccc1C(=O)Nc1ccc(OCCN(CC)CC)cc1.Cl` [Example 11, 4'-[2-(Diethylamino)ethoxy]-2-(propanesulfonamido)benzanilide Hydrochloride], with 3 mg/kg. For `CCN(CC)CCOc1ccc(NC(=O)c2ccccc2NS(=O)(=O)C(C)C)cc1.Cl` [Example 12, 4'-[2-(Diethylamino)ethoxy]-2-(isopropanesulfonamido)benzanilide Hydrochloride], the minimal effective dose turned out to be 3 mg/kg. Take `CCCN(CCC)CCOc1ccc(NC(=O)c2c(OC)cccc2OC)cc1` [Example 13, 4'-[2-(Dipropylamino)ethoxy]-2,6-dimethoxybenzanilide]: the minimal effective dose was 10 mg/kg.

`CCCN(CCC)CCOc1ccc(NC(=O)c2c(C)cccc2C)cc1` [Example 14, 4'-[2-(Dipropylamino)ethoxy]-2,6-dimethylbenzanilide]: the minimal effective dose turned out to be 3 mg/kg.

As to `COc1cccc(OC)c1C(=O)Nc1ccc(OCCN2CCCC2)cc1` [Example 16, 2,6-Dimethoxy-4'-[2-(1-pyrrolidinyl)ethoxy]benzanilide], the minimal effective dose turned out to be 10 mg/kg.

In the case of `CS(=O)(=O)Nc1ccccc1C(=O)Nc1ccc(OCCN2CCCC2)cc1` [Example 17, 2-Methanesulfonamido-4'-[2-(1-pyrrolidinyl)ethoxy]benzanilide], the minimal effective dose was determined as 10 mg/kg. On the same count and under the same terms, then `COc1cccc(OC)c1C(=O)Nc1ccc(OCCN2CCCCC2)cc1` [Example 18, 2,6-Dimethoxy-4'-(2-piperidinoethoxy)benzanilide], with 10 mg/kg; and `Cc1cccc(C)c1C(=O)Nc1ccc(OCCN2CCOCC2)cc1` [Example 19, 2,6-Dimethyl-4'-(2morpholinoethoxy)benzanilide], with 3 mg/kg; and `CCNCCOc1ccc(NC(=O)c2c(OC)cccc2OC)cc1.Cl` [Example 20, 4'-[(2-Ethylamino)ethoxy]-2,6-dimethoxybenzanilide Hydrochloride], with 10 mg/kg. As for `CCNCCOc1ccc(NC(=O)c2ccccc2NS(C)(=O)=O)cc1.Cl` [Example 21, 4'-[(2-Ethylamino)ethoxy]-2-(methanesulfonamido) benzanilide Hydrochloride], the minimal effective dose came out at 10 mg/kg. Still for that read-out and setting: the figure for `CCNCCOc1ccc(NC(=O)c2ccccc2S(C)(=O)=O)cc1.Cl` [Example 22, 4'-[(2-Ethylamino)ethoxy]-2-(methanesulfonyl)benzanilide Hydrochloride] is 3 mg/kg.

As for `CCNCCOc1ccc(NC(=O)C2CCOC2)cc1.Cl` (stereo not shown) [Example 23, 4'-[(2-Ethylamino)ethoxy]-2,3,4,5-tetrahydro-3-furanilide Hydrochloride], the minimal effective dose was 3 mg/kg. Regarding `CCNCCOc1ccc(NC(=O)CCOC)cc1` [Example 24, 4'-[(2-Ethylamino)ethoxy]-3-methoxypropananilide], the minimal effective dose stood at 10 mg/kg. As to `CCNCCOc1ccc(NC(=O)c2ccoc2)cc1.Cl` [Example 25, 4'-[(2-Ethylamino)ethoxy]-3-furanilide Hydrochloride], the minimal effective dose is 10 mg/kg. Same read-out and setting: the figure for `CCCNCCOc1ccc(NC(=O)c2c(OC)cccc2OC)cc1` [Example 26, 2,6-Dimethoxy-4'-[2-(propylamino)ethoxy]benzanilide] is 10 mg/kg.

On to `CCCNCCOc1ccc(NC(=O)C2CCOC2)cc1.Cl` (stereo not shown) [Example 27, 4'-[2-(Propylamino)ethoxy]-2,3,4,5-tetrahydro-3-furanilide Hydrochloride], for which the minimal effective dose worked out at 3 mg/kg.

Consider `CCCNCCOc1ccc(NC(=O)C2CCOCC2)cc1.Cl` [Example 28, 4'-[2-(Propylamino)ethoxy]-3,4,5,6-tetrahydro-2H-pyran-4-carboxanilide Hydrochloride], for which the minimal effective dose is 3 mg/kg. Consider `CC(C)NCCOc1ccc(NC(=O)c2ccccc2NS(C)(=O)=O)cc1.Cl` [Example 29, 4'-[2-(Isopropylamino)ethoxy]-2-(methanesulfonamido) benzanilide Hydrochloride], for which the minimal effective dose is 0.3 mg/kg.

For `COc1cccc(OC)c1C(=O)Nc1ccc(OCCNC(C)C)cc1` [Example 30, 4'-[2-(Isopropylamino)ethoxy]-2,6-dimethoxybenzanilide], the minimal effective dose is 10 mg/kg. In the case of `Cc1cccc(C)c1C(=O)Nc1ccc(OCCNC(C)C)cc1` [Example 31, 4'-[2-(Isopropylamino)ethoxy]-2,6-dimethylbenzanilide], the minimal effective dose came to 10 mg/kg. For `CC(C)NCCOc1ccc(NC(=O)c2ccccc2S(C)(=O)=O)cc1.Cl` [Example 32, 4'-[2-(Isopropylamino)ethoxy]-2-(methanesulfonyl) benzanilide Hydrochloride], the minimal effective dose was 10 mg/kg. For the compound `CC(C)NCCOc1ccc(NC(=O)C2CCOC2)cc1.Cl` (stereo not shown) [Example 33, 4'-[2-(Isopropylamino)ethoxy]-2,3,4,5-tetrahydro-3-furanilide Hydrochloride], the minimal effective dose is 10 mg/kg. For the compound `CC(C)NCCOc1ccc(NC(=O)C2CCOCC2)cc1.Cl` [Example 34, 4'-[2-(Isopropylamino)ethoxy]-3,4,5,6-tetrahydro-2H-pyran-4-carboxanilide Hydrochloride], the minimal effective dose is 3 mg/kg. On to `CC(C)NCCOc1ccc(NC(=O)c2ccoc2)cc1.Cl` [Example 35, 4'-[2-(Isopropylamino)ethoxy]-3-furanilide Hydrochloride], for which the minimal effective dose worked out at 10 mg/kg. Still for that read-out and setting: then `COCCC(=O)Nc1ccc(OCCNC(C)C)cc1.Cl` [Example 36, 4'-[2-(Isopropylamino)ethoxy]-3-methoxypropananilide Hydrochloride], with 10 mg/kg; and `CCCCNCCOc1ccc(NC(=O)c2c(OC)cccc2OC)cc1` [Example 37, 4'-[2-(Butylamino)ethoxy]-2,6-dimethoxybenzanilide], with 3 mg/kg. Still for that read-out and setting: the figure for `COc1cccc(OC)c1C(=O)Nc1ccc(OCCNCC(C)C)cc1` [Example 38, 4'-[2-(Isobutylamino)ethoxy]-2,6-dimethoxybenzanilide] is 3 mg/kg; for `COc1cccc(OC)c1C(=O)Nc1ccc(OCCNC(C)(C)C)cc1` [Example 39, 2,6-Dimethoxy-4'-[2-(tert-butylamino)ethoxy]benzanilide] it is 10 mg/kg; for `CC(C)(C)NCCOc1ccc(NC(=O)c2ccccc2NS(C)(=O)=O)cc1` [Example 40, 2-Methanesulfonamido-4'-[2-(tert-butylamino)ethoxy]benzanilide] it is 0.3 mg/kg.

With `COCCNCCOc1ccc(NC(=O)c2c(OC)cccc2OC)cc1` [Example 41, 4'-[2-[(2-Methoxyethyl)amino]ethoxy]-2,6-dimethoxy Benzanilide], the minimal effective dose is 10 mg/kg. Same read-out and setting: the figure for `COCCNCCOc1ccc(NC(=O)c2ccccc2NS(C)(=O)=O)cc1` [Example 42, 2-Methanesulfonamido-4'-[2-[(2-methoxyethyl)amino]ethoxy]benzanilide] is 3 mg/kg; for `COCCNCCOc1ccc(NC(=O)C2CCOC2)cc1.Cl` (stereo not shown) [Example 43, 4'-[2-[(2-Methoxyethyl)amino]ethoxy]-2,3,4,5-tetrahydro-3-furanilide Hydrochloride] it is 10 mg/kg.

Still in this assay, the particulars now being: intravenous, anesthetized dogs, as hydrochloride.
In the case of “4'-[2-(Dimethylamino)ethoxy]-2,6-diethylbenzanilide [Example 7]”, the “minimum dose level which suppresses atrial fibrillation” value is on record as 3.0 mg/kg. Same read-out and setting: the figure for “4'-[2-(Dipropylamino)ethoxy]-2,6-dimethoxybenzanilide [Example 15]” is 10 mg/kg.

The values above are taken from patent US6300368A, “Anilide derivatives and antiarrhythmic agents containing the same” (priority 1998, dated 2001).
